The results in this text go back to PMC8159961, “Exploring protein hotspots by optimized fragment pharmacophores” (Nature Communications, 2021).

Several values for one entry are separate records, joined by “and”; a condition that tells them apart may be missing. Identical values can stand only once. Like-named read-outs stand apart in the source and are kept apart here.

One experiment has as its target T1, human thrombin (Homo sapiens, UniProt P00734).
T1 construct: human thrombin; purchased Sigma-Aldrich
Description: Protease inhibitory assay, chromogenic substrate S-2238. It counts as biochemical. The note with it: for vinit: replicate values; for Ki: Thrombin, one of two values averaged in Supplementary Data 1, read-out: Ki.

A further experiment has as its target T2, bovine factor Xa (Bos taurus, UniProt P00743).
T2 construct: bovine factor Xa, Chromogenix, 2 nkat/mL; purchased Chromogenix
The experiment in a line: Protease inhibitory assay, chromogenic substrate S-2222. In kind it is biochemical. The note with it: cmpd conc 200 µM; for vinit: replicate values; for Ki: FactorXa, one of two values averaged in Supplementary Data 1, read-out: Ki.

Setting [1] is: Thrombin Ki determination, substrate 20 µM, cmpd conc 200 µM.
The mark [2] stands for this setting: Thrombin Ki determination, substrate 40 µM, cmpd conc 200 µM.
Setting [3] is: Thrombin primary screening, substrate 40 µM, cmpd conc 500 µM.
Setting [4] is: FactorXa primary screening, substrate 100 µM.
Setting [5] is: FactorXa Ki determination, substrate 100 µM.
The mark [6] stands for this setting: FactorXa Ki determination, substrate 200 µM.

T2 sequence (P00743 234-492 limits assumed): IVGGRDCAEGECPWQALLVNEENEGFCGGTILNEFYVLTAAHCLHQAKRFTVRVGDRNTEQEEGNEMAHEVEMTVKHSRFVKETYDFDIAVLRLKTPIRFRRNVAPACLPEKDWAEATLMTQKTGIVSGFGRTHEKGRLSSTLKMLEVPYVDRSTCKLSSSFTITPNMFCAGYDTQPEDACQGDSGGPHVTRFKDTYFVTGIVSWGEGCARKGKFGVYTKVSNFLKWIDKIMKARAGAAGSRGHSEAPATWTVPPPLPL
T2 sequence (P00743 41-180 partner limits assumed): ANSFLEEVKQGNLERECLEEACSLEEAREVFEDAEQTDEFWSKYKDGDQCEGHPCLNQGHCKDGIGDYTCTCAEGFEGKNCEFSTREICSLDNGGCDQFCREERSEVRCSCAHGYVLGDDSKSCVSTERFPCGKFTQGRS

For orientation: Ki means the dissociation constant of the complex between target and ligand, obtained from inhibition or displacement. As for `c1cnc2cccnc2c1` [SX-A2], the “V0 / Vi” value on human thrombin (setting [1]) worked out at 1.14; at human thrombin (setting [2]), 1.07; at human thrombin (setting [3]), 1.13; on bovine factor Xa (setting [4]), 1.03. Moreover, the results for the “vinit, avrg.” value at human thrombin (setting [1]) and at human thrombin (setting [2]) were 23.193 and 31.452, respectively. Moreover, the vinit on human thrombin (setting [1]) was 23.633 and 22.973 and 22.97; on human thrombin (setting [2]) it was 33.054 and 31.27 and 30.03; at human thrombin (setting [3]) it was 26.327 and 25.6; on bovine factor Xa (setting [4]), 17.164 and 16.836. Moreover, the Ki was determined as 160 µM on human thrombin (substrate 20 µM, cmpd conc 200 µM) and 166 µM on human thrombin (substrate 40 µM, cmpd conc 200 µM).
Turning to `c1cnc2ncccc2c1` [SX-A3], on human thrombin (setting [3]), the “V0 / Vi” value turned out to be 1.00; the vinit is 28.545 and 30.364. Also, on bovine factor Xa (setting [4]), the “V0 / Vi” value was determined as 0.96; the vinit was 18.873 and 17.673.
Turning to `c1ccc2[nH]ccc2c1` [SX-A4], on human thrombin (setting [3]), the “V0 / Vi” value is reported as 0.97; the vinit was 31.418 and 30.036. Also, at bovine factor Xa (setting [4]), the “V0 / Vi” value was determined as 1.05; the vinit was 15.929 and 16.714.
With `Nc1nnc2ccccn12` [SX-A5], on human thrombin (setting [3]), the “V0 / Vi” value is given as 0.99; the vinit was 30.873 and 29.418. For the same molecule, on bovine factor Xa (setting [4]), the “V0 / Vi” value is recorded as 0.96 and the vinit turned out to be 17.929.
Consider `Cn1c(N)nc2ccccc21` [SX-A6], for which the “V0 / Vi” value on human thrombin (setting [3]) is reported as 0.93; at bovine factor Xa (setting [5]), 1.48; on bovine factor Xa (setting [6]), 1.30; at bovine factor Xa (setting [4]), 1.45. Also, the vinit at human thrombin (setting [3]) was 31.891 and 32.182; at bovine factor Xa (setting [5]), 10.624 and 11.848 and 10.44; at bovine factor Xa (setting [6]), 28.578 and 28.05 and 27.32; on bovine factor Xa (setting [4]) it was 10.544 and 13.214. Also, at bovine factor Xa (setting [5]), the “vinit, avrg.” value stood at 10.970. Moreover, the Ki stood at 257 µM at bovine factor Xa (substrate 100 µM) and 297 µM on bovine factor Xa (substrate 200 µM).
With `Cc1nc(-c2ccccc2)cs1` [SX-A7], the “V0 / Vi” value on human thrombin (setting [3]) turned out to be 0.97; on bovine factor Xa (setting [4]) it was 0.98. For the same molecule, the vinit at human thrombin (setting [3]) is 32.618 and 31.345; on bovine factor Xa (setting [4]), 17.782 and 18.8.
As for `Cc1cc(-c2ccccc2)n[nH]1` [SX-A8], the “V0 / Vi” value was determined as 0.97 at human thrombin (setting [3]) and 0.98 on bovine factor Xa (setting [4]). For the same molecule, the vinit at human thrombin (setting [3]) is 32.036 and 32.145; at bovine factor Xa (setting [4]), 19.236 and 17.164.
Take `Brc1ccc(-c2ccon2)cc1` [SX-A9]: the “V0 / Vi” value at human thrombin (setting [3]) and at bovine factor Xa (setting [4]) was 0.98 in each case. The vinit at human thrombin (setting [3]) was 30.873 and 32.327; at bovine factor Xa (setting [4]) it was 19.055 and 17.6.
Regarding `COc1ccccc1N1CCNCC1` [SX-A10], on human thrombin (setting [3]), the “V0 / Vi” value amounted to 0.96; the vinit was 33.236 and 32.218. At bovine factor Xa (setting [4]), the “V0 / Vi” value was found to be 0.98; the vinit was 14.286 and 15.286.
On to `COc1ccccc1C1CCNCC1` [SX-A11], for which, on human thrombin (setting [3]), the “V0 / Vi” value turned out to be 0.93; the vinit was 35.636 and 31.927. At bovine factor Xa (setting [4]), the “V0 / Vi” value is 0.86; the vinit was 16.916 and 16.512.
For the molecule `Oc1ccccc1N1CCCCC1` [SX-A12], the “V0 / Vi” value is on record as 0.93 on human thrombin (setting [3]), 1.21 at bovine factor Xa (setting [5]), 1.14 at bovine factor Xa (setting [6]) and 1.24 on bovine factor Xa (setting [4]). The vinit on human thrombin (setting [3]) is 34.073 and 33.6; on bovine factor Xa (setting [5]), 13.208 and 13.684 and 13.54; on bovine factor Xa (setting [6]), 30.42 and 30.848 and 34.37; on bovine factor Xa (setting [4]) it was 11.714 and 11.643. The “vinit, avrg.” value on bovine factor Xa (setting [5]) amounted to 13.477. The results for the Ki on bovine factor Xa (substrate 100 µM) and on bovine factor Xa (substrate 200 µM) were 597 µM and 625 µM, respectively.
Take `CS(=O)(=O)c1ccc(N2CCNCC2)cc1` [SX-B1]: the vinit on human thrombin (setting [3]) was 29.818 and 32; on bovine factor Xa (setting [4]) it was 18 and 19.091.
For `O=C1CNCCN1c1ccccc1` [SX-B2], on human thrombin (setting [3]), the “V0 / Vi” value is 1.05; the vinit is 28.909 and 27.2. On bovine factor Xa (setting [4]), the “V0 / Vi” value is reported as 1.00; the vinit was 17.273 and 17.782.
With `O=C1CCCc2occc21` [SX-B3], on human thrombin (setting [3]), the “V0 / Vi” value came to 0.97; the vinit is 30.582 and 29.818. On bovine factor Xa (setting [4]), the “V0 / Vi” value was found to be 1.01; the vinit is 17.709 and 16.909.
As for `NC1CCc2ccccc21` (stereo not shown) [SX-B4], the “V0 / Vi” value is 0.96 at human thrombin (setting [3]) and 0.93 on bovine factor Xa (setting [4]). The vinit was 31.2 and 30.982 at human thrombin (setting [3]); 18.714 and 18.143 on bovine factor Xa (setting [4]).
`N[C@H]1c2ccccc2C[C@H]1CO` [SX-B5]: on human thrombin (setting [3]), the “V0 / Vi” value is 0.98; the vinit is 32.873 and 28.182. For the same molecule, at bovine factor Xa (setting [4]), the “V0 / Vi” value was found to be 0.91; the vinit was 18.071 and 19.643.
Consider `O=c1[nH]ncc2c1oc1ccccc12` [SX-B6], for which, at human thrombin (setting [3]), the “V0 / Vi” value came out at 1.05; the vinit is 28.582 and 28.145. Besides, on bovine factor Xa (setting [4]), the “V0 / Vi” value is recorded as 1.00; the vinit was 17.214 and 17.071.
Regarding `O=C1NC(=O)C2(CCc3ccccc32)N1` (stereo not shown) [SX-B7], the “V0 / Vi” value on human thrombin (setting [3]) and on bovine factor Xa (setting [4]) was 0.98 throughout. Besides, the vinit is 31.782 and 31.345 at human thrombin (setting [3]); 19.273 and 17.122 on bovine factor Xa (setting [4]).
In the case of `CS(=O)(=O)c1ccc(OC(F)(F)F)cc1` [SX-B8], the “V0 / Vi” value on human thrombin (setting [3]) is on record as 0.99; at bovine factor Xa (setting [4]), 0.94. The vinit at human thrombin (setting [3]) is 31.709 and 31.2; at bovine factor Xa (setting [4]), 20.109 and 18.073.
Regarding `Cc1cnc(C(F)(F)F)cn1` [SX-B9], at human thrombin (setting [3]), the “V0 / Vi” value is 1.01; the vinit was 31.164 and 30.509. On bovine factor Xa (setting [4]), the “V0 / Vi” value was 0.98; the vinit is 18.8 and 17.6.
On to `CN1CC(=O)NC1=O` [SX-B10], for which, at human thrombin (setting [3]), the “V0 / Vi” value amounted to 0.98; the vinit is 32.909 and 30.982. In addition, on bovine factor Xa (setting [4]), the “V0 / Vi” value turned out to be 0.98; the vinit was 14 and 15.6.
Regarding `Cc1cc(N)no1` [SX-B11], at human thrombin (setting [3]), the “V0 / Vi” value was 1.00; the vinit is 30.982 and 31.927. Further, on bovine factor Xa (setting [4]), the “V0 / Vi” value amounted to 0.97; the vinit was 13.08 and 16.72.
In the case of `COc1ccccc1CC1CCNCC1.Cl` [SX-B12], the “V0 / Vi” value at human thrombin (setting [3]) is 0.97; at bovine factor Xa (setting [5]), 1.28; at bovine factor Xa (setting [6]), 1.25; on bovine factor Xa (setting [4]), 1.35. Also, the vinit on human thrombin (setting [3]) was 32.327 and 32.218; at bovine factor Xa (setting [5]), 13.1265 and 12.596 and 12.46; on bovine factor Xa (setting [6]), 26.514 and 31.33 and 29.51; at bovine factor Xa (setting [4]), 10.3 and 11.164. Moreover, the “vinit, avrg.” value on bovine factor Xa (setting [5]) came out at 12.727. For the same molecule, the Ki on bovine factor Xa (substrate 100 µM) amounted to 445 µM; at bovine factor Xa (substrate 200 µM) it was 357 µM.
`Fc1ccc(CC2CCCNC2)cc1` (stereo not shown) [SX-C1]: on human thrombin (setting [3]), the “V0 / Vi” value amounted to 0.97; the vinit is 29.564 and 30.8. In addition, on bovine factor Xa (setting [4]), the “V0 / Vi” value is 0.94; the vinit is 18.218 and 18.909.
With `c1ccc(-c2ccncc2)cc1` [SX-C2], at human thrombin (setting [3]), the “V0 / Vi” value was 0.98; the vinit was 30.473 and 29.273. At bovine factor Xa (setting [4]), the “V0 / Vi” value is recorded as 1.01; the vinit is 16.764 and 18.
Consider `NC(c1ccccc1)c1ccccc1` [SX-C3], for which the entries for the “V0 / Vi” value at human thrombin (setting [3]) and on bovine factor Xa (setting [4]) were 1.07 and 0.95, respectively. For the same molecule, the vinit is 27.818 and 27.309 at human thrombin (setting [3]); 19.527 and 17.564 on bovine factor Xa (setting [4]).
As to `c1ccc2c(N3CCNCC3)ccnc2c1` [SX-C4], on human thrombin (setting [3]), the “V0 / Vi” value amounted to 1.01; the vinit was 30.291 and 29.018. On bovine factor Xa (setting [4]), the “V0 / Vi” value is 1.03; the vinit is 16.357 and 17.
As to `O=c1ccc2c([nH]1)CCCC2` [SX-C5], the “V0 / Vi” value is reported as 1.00 on human thrombin (setting [3]) and 1.05 on bovine factor Xa (setting [4]). Further, the vinit on human thrombin (setting [3]) is 30.182 and 29.673; at bovine factor Xa (setting [4]) it was 16.714 and 16.
As to `CC1(C)OC(=O)c2cc(Br)c(O)cc2O1` [SX-C6], the results for the “V0 / Vi” value at human thrombin (setting [3]) and at bovine factor Xa (setting [4]) were 1.14 and 1.03, respectively. The vinit is 27.418 and 25.091 on human thrombin (setting [3]); 16.857 and 16.429 on bovine factor Xa (setting [4]).
With `CC(=O)c1ccc2c(c1)CCCN2` [SX-C7], on human thrombin (setting [3]), the “V0 / Vi” value is recorded as 0.96; the vinit was 32.218 and 32.109. Moreover, at bovine factor Xa (setting [4]), the “V0 / Vi” value is listed as 1.02; the vinit is 17.382 and 17.673.
With `CC(=O)c1ccc2c(c1)CNCC2` [SX-C8], on human thrombin (setting [3]), the “V0 / Vi” value stood at 0.98; the vinit is 32.218 and 31.018. At bovine factor Xa (setting [4]), the “V0 / Vi” value is reported as 0.98; the vinit was 18.691 and 17.818.
`O=C1NC2(CCCC2)Nc2ccccc21` [SX-C9]: at human thrombin (setting [3]), the “V0 / Vi” value is reported as 1.01; the vinit is 30.218 and 31.018. Also, on bovine factor Xa (setting [4]), the “V0 / Vi” value was 0.98; the vinit is 18.873 and 17.6.
As to `O=c1[nH]c2c(s1)CCC2` [SX-C10], at human thrombin (setting [3]), the “V0 / Vi” value came out at 0.94; the vinit was 33.418 and 33.127. On bovine factor Xa (setting [4]), the “V0 / Vi” value stood at 1.04; the vinit is 13.7 and 14.2.
For `C1=C[C@H]2O[C@@H]1c1ccccc12` [SX-C11], at human thrombin (setting [3]), the “V0 / Vi” value was 0.96; the vinit was 33.564 and 31.964. Besides, on bovine factor Xa (setting [4]), the “V0 / Vi” value was determined as 0.94; the vinit was 15.415 and 15.185.
